The text below walks through data of ChEMBL document CHEMBL5608179, “Triptonide induces apoptosis and inhibits the proliferation of ovarian cancer cells by activating the p38/p53 pathway and autophagy” (Bioorg Med Chem, 2024).

Assay [1] concerns A2780. Kind of assay: Cytotoxicity against human A2780 cells assessed as cell viability measured after 48 hrs by MTT assay. Format: functional, cell-based. As to conditions: A2780, 48 h. (In general: Formazan colour is commonly taken as a measure of viable cells.)
Assay [2] deals with A2780. Description: Induction of apoptosis in human A2780 cells assessed as necrotic cells at 800 nM measured after 24 hrs by Annexin V-FITC/PI flow cytometry (reference value: 0.18%). It is filed as functional. (Flow cytometry measures light scatter and fluorescence of single cells or particles in a stream.)
Assay [3] relates to A2780. Kind of assay: Induction of apoptosis in human A2780 cells assessed as viable cells at 800 nM measured after 24 hrs by Annexin V-FITC/PI flow cytometry (reference value: 96.1%). Format: functional. As to conditions: read-out: Activity.
Assay [4] deals with A2780. Kind of assay: Induction of apoptosis in human A2780 cells assessed as late apoptotic cells at 800 nM measured after 24 hrs by Annexin V-FITC/PI flow cytometry (reference value: 1.58%). Format: functional.
In assay [5] the test system is A2780. Description: Induction of apoptosis in human A2780 cells assessed as early apoptotic cells at 800 nM measured after 24 hrs by Annexin V-FITC/PI flow cytometry (reference value: 2.17%). Format: functional.
Assay [6] concerns SK-OV-3. Kind of assay: Cytotoxicity against human SK-OV-3 cells assessed as cell viability measured after 48 hrs by MTT assay. As to conditions: SK-OV-3, 48 h. Format: functional, cell-based.
The test system of assay [7] is Huh-7. Kind of assay: Cytotoxicity against human Huh-7 cells assessed as cell viability measured after 48 hrs by MTT assay. It is filed as functional, cell-based. As to conditions: Huh-7, 48 h.
Assay [8] relates to A2780. Kind of assay: Induction of cell cycle arrest in human A2780 cells assessed as accumulation of cells at S phase at 20 uM measured after 24 hrs by PI staining based Cell Cycle Analysis Kit (KeyGEN) (reference value: 15%). Format: functional.
Assay [9] has as its system A2780. Description: Induction of apoptosis in human A2780 cells assessed as early apoptotic cells at […] measured after 24 to 72 hrs by Annexin V-FITC/PI flow cytometry (reference value: 2.82%). It is filed as functional. The following applies: time 24-72 hrs.
Assay [10] concerns A2780. Description: Induction of apoptosis in human A2780 cells assessed as late apoptotic cells at […] measured after 24 to 72 hrs by Annexin V-FITC/PI flow cytometry (reference value: 2.54%). Format: functional. The following applies: time 24-72 hrs.
Assay [11] concerns A2780. Kind of assay: Induction of cell cycle arrest in human A2780 cells assessed as accumulation of cells at G1 phase at 20 uM measured after 24 hrs by PI staining based Cell Cycle Analysis Kit (KeyGEN) (reference value: 54.2%). It is filed as functional.
Assay [12] concerns A2780. Description: Induction of cell cycle arrest in human A2780 cells assessed as accumulation of cells at G2 phase at 20 uM measured after 24 hrs by PI staining based Cell Cycle Analysis Kit (KeyGEN) (reference value: 24.5%). It is filed as functional.
The test system of assay [13] is A2780. Description: Induction of apoptosis in human A2780 cells assessed as viable cells at 20 uM measured after 24 to 72 hrs by Annexin V-FITC/PI flow cytometry (reference value: 94.2%). The following applies: time 24-72 hrs, read-out: Activity. It is filed as functional.
The subject of assay [14] is A2780. Description: Induction of apoptosis in human A2780 cells assessed as necrotic cells at 20 uM measured after 24 to 72 hrs by Annexin V-FITC/PI flow cytometry (reference value: 0.39%). It is filed as functional. As to conditions: time 24-72 hrs.

The structures appear in SMILES notation.

What is called IC50 is the point on the concentration scale where inhibition reaches its midpoint. `C[C@@]1(C(=O)O)CC[C@]2(C)CC[C@]3(C)C4=CC(=O)c5c(cc(O)c(O)c5C=O)[C@]4(C)CC[C@@]3(C)[C@@H]2C1`: in assay [1], the IC50 was 10.1 µM.
`C[C@]12CCC[C@@]3(COC1=O)[C@@H]1CC[C@@H]4C[C@@]1(CC[C@@H]32)C[C@@]4(C)O`: in [1], the IC50 is above 60 µM.
`C[C@@H]1[C@@]23CC[C@H]4[C@@](C)(CC[C@@]5(C)[C@@H]6C[C@](C)(C(=O)O)CC[C@]6(C)CC[C@]45C)[C@@H]2C[C@@H](O)[C@@]1(O)OC3`: the IC50 in assay [1] is above 60 µM.
As for `CC(=O)OC[C@]12[C@H](OC(C)=O)[C@H](OC(C)=O)[C@@H]3[C@@H](OC(C)=O)[C@@]14O[C@@]3(C)COC(=O)c1cccnc1CC[C@H](C)C(=O)O[C@@H]([C@H](OC(=O)c1ccccc1)[C@@H]2OC(C)=O)[C@]4(C)O`, in assay [1], the half-inhibitory concentration (IC50) is above 60 µM.
Same read-out and setting: the value for `CC(=O)OC[C@]12[C@H](OC(C)=O)[C@H](OC(C)=O)[C@@H]3[C@@H](OC(C)=O)[C@@]14OC3(C)COC(=O)c1cccnc1CCC(C)C(=O)O[C@@H]([C@H](OC(=O)c1ccoc1)[C@@H]2OC(C)=O)C4(C)O` (stereo not given in full) was above 60 µM; that for `CC1(C)[C@@H](O)CC[C@]2(C)[C@H]3CC=C4[C@@H]5C[C@@]6(C)C[C@H](OC6=O)[C@]5(C)CC[C@@]4(C)[C@]3(C)CC[C@@H]12` [3-EPIABRUSLACTONE A] was above 60 µM.
For the compound `CO/C1=C\C(C)=C\[C@@H](C)[C@@H](O)[C@@H](C)C/C(C)=C/C=C/[C@H](OC)[C@@H]([C@@H](C)[C@@H](O)[C@H](C)[C@@]2(O)C[C@@H](O)[C@H](C)[C@@H](C(C)C)O2)OC1=O` [BAFILOMYCIN A1], the Activity in [2] is recorded as 0.43%; in assay [4], 2.27%; in assay [5] it was 3.33%. In addition, in assay [3], the viability at 0.8 µM worked out at 94%.
As to `CC1=C(O)C(=O)C=C2C1=CC=C1[C@@]2(C)CC[C@@]2(C)[C@@H]3C[C@](C)(C(=O)O)CC[C@]3(C)CC[C@]12C` [CELASTROL], the IC50 in assay [1] amounted to 1.57 µM.
On to `COc1cccc2c1C(=O)c1c(O)c3c(c(O)c1C2=O)C[C@@](O)(C(=O)CO)C[C@@H]3O[C@H]1C[C@H](N)[C@@H](O)[C@H](C)O1` [EPIRUBICIN], for which the IC50 in assay [1] was 1.28 µM; in [6], 0.498 µM; in assay [7] it was 0.495 µM.
For `O=c1[nH]cc(F)c(=O)[nH]1` [FLUOROURACIL] the same measures were 3.93 µM, 10.8 µM and 28.5 µM.
For `C[S+]([O-])c1ccc(-c2nc(-c3ccc(F)cc3)c(-c3ccncc3)[nH]2)cc1` (stereo not given) [SB-203580], the Activity in assay [8] worked out at 10%; in assay [9], 3.32%; in assay [10] it was 4.27%; in assay [11] it was 53.8%; in [12] it was 31.5%; in assay [14], 0.41%. Moreover, the viability at 20 µM in assay [13] was 92%.
As for `CC(C)c1ccc2c(c1O)CC[C@H]1C3=C(CC[C@]21C)C(=O)OC3` [TRIPTOPHENOLIDE], the IC50 in assay [1] is above 60 µM.
